ChEMBL document CHEMBL3297727, “Endiandric acid analogues from Beilschmiedia ferruginea as dual inhibitors of Bcl-xL/Bak and Mcl-1/Bid interactions” (J Nat Prod, 2014)
Active and inactive are the calls of the source. The calls are words filed in the database; no cut-off is given here.

Tests used:
[1] = Drug degradation in DMSO assessed as autoxidation at 4 degC incubated under dark condition for 6 months; assay type: physicochemical; conditions: 4383 h
[2] = target: T1, Bcl-2-like protein 1 (Homo sapiens, UniProt Q07817); assay: Displacement of fluorescein-labeled BAK from His-tagged BCL-XL (unknown origin) after 1 hr by fluorescence polarization assay
T1 sequence (Q07817 whole entry): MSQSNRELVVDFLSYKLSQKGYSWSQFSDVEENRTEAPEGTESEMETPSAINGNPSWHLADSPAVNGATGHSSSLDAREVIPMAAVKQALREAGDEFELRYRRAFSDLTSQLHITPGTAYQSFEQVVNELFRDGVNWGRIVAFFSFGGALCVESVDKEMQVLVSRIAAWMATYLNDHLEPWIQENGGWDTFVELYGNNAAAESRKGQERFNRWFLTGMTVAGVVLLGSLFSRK

[3] = test system: HCT-116; assay: Cytotoxicity against human HCT116 cells up to 50 uM after 72 hrs by resazurin-based fluorimetric assay; assay type: functional, cell-based
[4] = Drug degradation assessed as conversion to ferrugineic acid F and ferrugineic acid G under diffuse daylight condition at 25 degC for 1 month; assay type: physicochemical; conditions: 730.5 h
[5] = test system: K562; assay: Cytotoxicity against human K562 cells up to 50 uM after 72 hrs by resazurin-based fluorimetric assay; assay type: functional, cell-based
[6] = target: T2, Induced myeloid leukemia cell differentiation protein Mcl-1 (Homo sapiens, UniProt Q07820); assay: Displacement of fluorescein-labeled BID from His-tagged MCL-1 (unknown origin) at 100 uM after 1 hr by fluorescence polarization assay relative to control
T2 sequence (Q07820 whole entry): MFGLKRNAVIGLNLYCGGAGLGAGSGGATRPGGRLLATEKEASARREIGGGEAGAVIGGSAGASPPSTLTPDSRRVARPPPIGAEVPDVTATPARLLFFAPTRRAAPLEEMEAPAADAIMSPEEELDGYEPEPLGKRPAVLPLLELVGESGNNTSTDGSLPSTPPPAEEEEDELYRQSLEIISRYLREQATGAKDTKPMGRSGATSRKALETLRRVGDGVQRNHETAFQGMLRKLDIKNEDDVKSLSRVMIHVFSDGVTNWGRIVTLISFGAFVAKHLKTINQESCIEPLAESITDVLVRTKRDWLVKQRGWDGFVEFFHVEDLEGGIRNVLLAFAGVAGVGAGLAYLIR

[7] = Drug degradation assessed as conversion to ferrugineic acid H and ferrugineic acid I at 4 degC incubated under dark condition for 3 to 6 months; assay type: physicochemical
[8] = target: T1, Bcl-2-like protein 1; assay: Displacement of fluorescein-labeled BAK from His-tagged BCL-XL (unknown origin) at 100 uM after 1 hr by fluorescence polarization assay relative to control
[9] = Drug degradation assessed as conversion to ferrugineic acid H and ferrugineic acid I under diffuse daylight condition at 25 degC for 1 month; assay type: physicochemical; conditions: 730.5 h
[10] = Drug degradation assessed as conversion to ferrugineic acid F and ferrugineic acid G at 4 degC incubated under dark condition for 3 to 6 months; assay type: physicochemical
[11] = target: T2, Induced myeloid leukemia cell differentiation protein Mcl-1; assay: Displacement of fluorescein-labeled BID from His-tagged MCL-1 (unknown origin) after 1 hr by fluorescence polarization assay
[12] = Cytotoxicity against human HCT116 cells after 72 hrs by resazurin-based fluorimetric assay; assay type: functional, cell-based; conditions: HCT-116, 72 h
[13] = test system: K562; assay: Cytotoxicity against human K562 cells after 72 hrs by resazurin-based fluorimetric assay; assay type: functional, cell-based; conditions: K562, 72 h

| Ki [2] [µM] | Stability [4] | inhibition [6] [%] | Stability [7] | inhibition [8] [%] | Stability [9] | Stability [10] | Ki [11] [µM] | Structure (SMILES) | Stability [1] | Activity [3] | Activity [5] | IC50 [12] [µM] | IC50 [13] [µM] |
| --- | --- | --- | --- | --- | --- | --- | --- | --- | --- | --- | --- | --- | --- |
| > 100 | Unstable | 0 | Unstable | 22 | Unstable | Unstable |  | O=C(O)[C@@H]1C=C[C@@H]2C[C@H]3[C@H](CCCc4ccc(O)cc4)[C@H]4C=C[C@@H]1[C@@H]2[C@H]43 (relative stereo) | Stable | inactive | inactive |  |  |
| 19.2 | Unstable | 85 | Unstable | 60 | Unstable | Unstable | 14 | O=C(O)[C@@H]1C=C[C@@H]2C[C@H]3[C@H](CCCCCc4ccc(O)cc4)[C@H]4C=C[C@@H]1[C@@H]2[C@H]43 (relative stereo) | Stable | inactive | inactive |  |  |
| > 100 |  | 82 |  | 39 |  |  | 5.2 | O=C(O)[C@@H]1C=C[C@@H]2C[C@H]3[C@H](CCCc4ccc(O)c(O)c4)[C@H]4C=C[C@@H]1[C@@H]2[C@H]43 (relative stereo) | Stable | inactive | inactive |  |  |
|  |  | 14 |  | 20 |  |  |  | O=C(O)[C@@H]1C=C[C@@H]2C[C@H]3[C@H](CC/C=C/Cc4ccc(O)cc4)[C@H]4C=C[C@@H]1[C@@H]2[C@H]43 (relative stereo) | Stable | inactive | inactive |  |  |
|  |  |  |  |  |  |  |  | CCC1=C[C@@H]2CN(C1)Cc1c([nH]c3ccccc13)[C@@](C(=O)OC)(c1cc3c(cc1OC)N(C)[C@H]1[C@@](O)(C(=O)OC)[C@H](OC(C)=O)[C@]4(CC)C=CCN5CC[C@]31[C@@H]54)C2 [VINORELBINE] |  |  |  | 0.015 | 0.006 |
| 12.6 |  | 82 |  | 93 |  |  | 13 | O=C(O)[C@@H]1C=C[C@@H]2C[C@H]3[C@H](CCCCCCCc4ccc(O)cc4)[C@H]4C=C[C@@H]1[C@@H]2[C@H]43 (relative stereo) | Stable | inactive | inactive |  |  |
|  |  | 3 |  |  |  |  |  | O=C(O)C1=C[C@H](O)[C@@H]2C[C@H]3[C@H](CCCCCc4ccc(O)cc4)[C@H]4C=C[C@@H]1[C@@H]2[C@H]43 (relative stereo) |  |  |  |  |  |
|  |  |  |  |  |  |  |  | O=C(O)C1=CC(=O)[C@@H]2C[C@H]3[C@H](CCCc4ccc(O)cc4)[C@H]4C=C[C@@H]1[C@@H]2[C@H]43 (relative stereo) |  | inactive | inactive |  |  |
| > 100 |  | 0 |  | 22 |  |  |  | O=C(O)/C=C/[C@H]1[C@H]2C=C[C@H]3[C@@H]1C[C@H]1[C@H](CCCc4ccc(O)cc4)[C@@H]2[C@@H]31 (relative stereo) |  | inactive | inactive |  |  |
|  |  | 0 |  | 7 |  |  |  | O=C(O)C1=C[C@@H](O)[C@@H]2C[C@H]3[C@H](CCCc4ccc(O)cc4)[C@H]4C=C[C@@H]1[C@@H]2[C@H]43 (relative stereo) |  | inactive | inactive |  |  |
